Assay results as given in patent US8507674B2, “Quorum sensing inhibitor” (The University of Tokyo, priority 2007, dated 2013).

Experiments:
[1] = system: Burkholderia glumae; test: Test Example 9: amount of toxoflavin produced in culture solution, with comparative compound; assay type: cell-based; settings: 0, 20, 40, 60, 80 or 100 μM, shake culturing 20 hours, FIG. 6
Description: Burkholderia glumae was inoculated into an LB culture medium (produced by BD (Difco LB Broth: containing tryptone (10.0 g), yeast extract (5.0 g), and sodium chloride (10.0 g)), and cultured at 37° C. overnight. The thus-obtained culture solution was subjected to bacterial collection using a centrifuge, and washed with an LB culture medium twice using a fresh LB culture medium each time. To the bacterial cell a fresh LB culture medium was added, and then Compound (1) produced in Production Example 1 was added thereto in such a manner that its final concentration became a predetermined value (i.e., 0, 20, 40, 60, 80 or 100 μM), followed by shake culturing for 20 hours. The amount of toxoflavin produced by the bacterial cell in the culture solution was obtained by the following procedure.
Each culture solution was filtered by a 0.22-μm membrane filter, and 1 mL of the filtrate was isolated. One mL of chloroform was added to the filtrate, followed by extraction. The thus-obtained chloroform layer was concentrated under reduced pressure, and an 80% (V/V) an aqueous methanol solution was added to and dissolved in the residue. The absorbance (at 260 nm) of the solution was measured, and the toxin doses were calculated from the calibration curve, which was obtained using chemically synthesized standard toxin. […]

[2] = system: (gfp expression PAO1-strain); test: Test Example 7: biofilm formation inhibition in flow cell system; assay type: cell-based, Burkholderia aeruginosa; settings: test liquid at 200 μL per minute, observed up to 84 hours by confocal microscope, FIG. 5
Description: Using the flow cell system shown in FIG. 4, the […] aeruginosa biofilm formation inhibition effect of Compound (2), which was produced using Production Example 2, was evaluated.
A culture medium bottle (1), peristaltic pump (2), glass cell (4) and waste fluid bottle (5) are connected via a silicon tube (6) so that a culture medium (9) is supplied to the glass cell (4) from the culture medium bottle (1) using the peristaltic pump (2). The system includes an air removal section (3) between the peristaltic pump (2) and a turncock (7a) for removing entrained air. All components in the flow cell system were sterilized using gamma rays or an autoclave.
As described later, the inhibitory effect against biofilm formation of each of the compounds can be examined in the following manner. Bacteria are cultured in a glass cell (4) to grow a biofilm on the inner wall of the cell, and a test liquid containing one of the compounds is applied to the biofilm. Then the state of the biofilm is observed to evaluate the inhibitory effect against biofilm formation of the compound using a spectral confocal and multiphoton microscope (Leica TCS SP2: produced by Leica). […]

[3] = system: Porphyromonas gingivalis 381-strain; test: Test Example 8: biofilm formation inhibition on hydroxyapatite disks in flow cell system; assay type: cell-based
Description: Using the flow cell system shown in FIG. 4, the Porphyromonas gingivalis biofilm formation inhibition effect of Compound (2), which was produced in Production Example 2, was evaluated.
Bacteria: Periodontitis pathogenic bacteria Porphyromonas gingivalis 381-strain (clinical strain) were used.
Culture Medium: A GAM culture medium containing […] and 1 μg/L menadione was used.
Bacterial Suspension The 381-strain was inoculated into the GAM culture medium, and cultivated until the stationary phase (OD550=1.8). Then the culture medium was diluted 20-fold by the GAM culture medium described above.
Test liquid: The test liquid was prepared by dissolving Compound (2) into DMSO to obtain 100 μM of DMSO solution of Compound (2). […]
After the cultivation, the HA disks were dipped in 300 μL of sterile distilled water, and treated by supersonic waves for 30 minutes at 4° C. […] Then, the turbidity of 10 μL of the suspension liquid was measured with an absorptiometer (C07500 calorimeter, produced by Funakoshi) (measurement wavelength=550 nm).
A mean OD was found based on the resulting OD values, excluding the minimum and maximum values. Likewise, the turbidity of the control test liquid was obtained and determined as a control OD value, and then the control mean OD value was found in the same manner. […]

[4] = system: Burkholderia glumae; test: Test Example 2: number of microorganisms in culture solution (colony count); assay type: cell-based; settings: final concentration 100 μM, after 36 hours of cultivation, FIG. 1
Description: Burkholderia glumae was inoculated into an LB culture medium, and cultured at 37° C. overnight. The thus-obtained culture solution was subjected to bacterial collection using a centrifuge, washed with an LB culture medium twice using a fresh LB culture medium each time. To the bacterial cell a fresh LB culture medium was added to prepare a culture suspension of about 3.0×10^5 cfu/mL. Thereafter, each of Compound (1), Compound (2), Compound (3), Compound (4), Compound (5), Compound (8) and Compound (9) produced in Production Examples 1-5 were added to the culture suspension in such a manner that their final concentration became 100 μM, followed by shake culturing for 36 hours. The number of microorganisms in the culture solution 24 hours and 36 hours after the initiation of the culturing were obtained by the following procedure. Specifically, a portion of the culture solution was removed and diluted 1,000-fold, and then seeded to an LB culture medium agar plate. The number of colonies were counted to obtain the number of microorganisms.
The same experiments were conducted, as comparative tests, using Comparative Compounds (1)-(3), which were produced in Reference Examples 1-3 and the below-explained compound (Comparative Compound (4)), which is disclosed in Patent Document 1, thereby obtaining the number of microorganisms.

Q: With `CCCCCCCCCC(=O)CC(=O)Nc1ccccc1O` [Comparative Compound (5), reference compound] as the compound, how does the “toxin doses produced by bacteria (toxoflavin)” value [1] read?
A: Its value is “almost no change”.

Q: With `CCCCCc1cc(=O)n2cccc(O)c2n1` [Compound (2), 9-hydroxy-2-n-pentyl-4H-pyrid[1,2-a]pyrimidin-4-one] as the compound, how does the “biofilm formation on inner wall of glass cell” value [2] read?
A: Its value is “biofilm formation was not observed”.

Q: And the “Mean OD Value” ([3]; 100 μM, 14 days circulation, turbidity of biofilm suspension at 550 nm)?
A: Its value is 0.041.

Q: What about the inhibition at 100 µM ([3]; Porphyromonas gingivalis, 381STRAIN, 336 h, read-out: Inhibition Rate (%) (biofilm formation inhibition rate)) of the same compound?
A: Its inhibition at 100 µM is 56.4%.

Q: With `CCc1cc(=O)n2cccc(O)c2n1` [Compound (8), 9-hydroxy-2-ethyl-4H-pyrid[1,2-a]pyrimidin-4-one] as the compound, how does the “control activity against Burkholderia glumae (number of microorganisms)” value [4] read?
A: The value was “can kill almost all Burkholderia glumae”.

Q: Which “control activity against Burkholderia glumae (number of microorganisms)” value [4] does the source give for `CCCCc1cc(=O)n2cccc(O)c2n1` [Compound (9), 9-hydroxy-2-n-butyl-4H-pyrid[1,2-a]pyrimidin-4-one] here?
A: The value was “can kill almost all Burkholderia glumae”.
